Measurements: patent US20100099088A1, “RELIABLE DETECTION OF VANCOMYCIN-INTERMEDIATE STAPHYLOCOCCUS AUREUS” (priority 2006, published 2010)
Values after ≈ are worked out from the molar mass of the structure shown. Read-outs that look alike come from different tables or passages of the source.

Key:
[1] = test system: Staphylococcus aureus strains (MRSA, hVISA/VISA, in vitro-selected); settings: cited from earlier work; as to CLSI Etest category: key: S = sensitive; I = intermediate; R = resistant
[2] = test system: Staphylococcus aureus strains (MRSA, hVISA/VISA); test: Modified (macromethod) Etest, vancomycin MIC, 2 McFarland inoculum; format: cell-based; settings: for MIC: Staphylococcus aureus; for Modified Etest category: 2 McF inoculum; as to Modified Etest category: key: S = sensitive; I = intermediate; R = resistant
Experimental: Vancomycin MICs were determined using standard Etest methods. Briefly, colonies from a fresh overnight plate were resuspended in saline to a turbidity equivalent to 0.5 McFarland units. This suspension was swabbed onto Mueller-Hinton agar plates, allowed to dry, and overlaid with a Vancomycin Etest strip (AB Biodisk). Plates were incubated at 37° C. for 48 h and interpreted. […] For some MRSA strains, the macromethod Etest was also applied, using an inoculum equivalent to 2 McFarland units on Brain-Heart Infusion agar plates.

[3] = strain 160013 (NRS283), 0.5 McF inoculum
[4] = strain BR 5 (NRS56), 0.5 McF inoculum
[5] = strain HIP07930 (NRS22), 0.5 McF inoculum
[6] = strain HIP09433 (NRS27), 0.5 McF inoculum
[7] = strain HIP09662 (NRS28), 0.5 McF inoculum
[8] = strain HIP12864 (NRS402), 0.5 McF inoculum
[9] = strain LIM 1 (NRS35), 0.5 McF inoculum
[10] = strain LIM 3 (NRS37), 0.5 McF inoculum
[11] = strain LY-1999 0620-01 (NRS63), 0.5 McF inoculum
[12] = strain LY-1999 0620-02 (NRS64), 0.5 McF inoculum
[13] = strain Mu3 (NRS2), 0.5 McF inoculum
[14] = strain Mu50 (NRS1), 0.5 McF inoculum
[15] = strain NRS118, 0.5 McF inoculum
[16] = strain SA MER (NRS11), 0.5 McF inoculum
[17] = strain SA MER-S20 (NRS14), 0.5 McF inoculum

In the case of `CN[C@H](CC(C)C)C(=O)N[C@H]1C(=O)N[C@@H](CC(N)=O)C(=O)N[C@H]2C(=O)N[C@H]3C(=O)N[C@H](C(=O)N[C@H](C(=O)O)c4cc(O)cc(O)c4-c4cc3ccc4O)[C@H](O)c3ccc(c(Cl)c3)Oc3cc2cc(c3O[C@@H]2O[C@H](CO)[C@@H](O)[C@H](O)[C@H]2O[C@H]2C[C@](C)(N)[C@H](O)[C@H](C)O2)Oc2ccc(cc2Cl)[C@H]1O` [vancomycin], the “CLSI Etest MIC” value [1, 3] is given as 4 µg/mL, the “CLSI Etest category” value [1, 3] is given as “I” and the “CLSI Etest MIC” value [1, 4] is given as 8 µg/mL. For the same compound, the “CLSI Etest category” value [1, 4] was “I”, the “CLSI Etest MIC” value [1, 5] was 4 µg/mL and the “CLSI Etest category” value [1, 5] was “I”. The “CLSI Etest MIC” value [1, 6] was 4 µg/mL, the “CLSI Etest category” value [1, 6] was “I” and the “CLSI Etest MIC” value [1, 7] was 3 µg/mL. The “CLSI Etest category” value [1, 7] was “S”, the “CLSI Etest MIC” value [1, 8] was 8 µg/mL and the “CLSI Etest category” value [1, 8] was “I”. For the same compound, the “CLSI Etest MIC” value [1, 9] was 2 µg/mL, the “CLSI Etest category” value [1, 9] was “S” and the “CLSI Etest MIC” value [1, 10] was 4 µg/mL. The “CLSI Etest category” value [1, 10] was “I”, the “CLSI Etest MIC” value [1, 11] was 8 µg/mL and the “CLSI Etest category” value [1, 11] was “I”. The “CLSI Etest MIC” value [1, 12] was 1.5 µg/mL, the “CLSI Etest category” value [1, 12] was “S” and the “CLSI Etest MIC” value [1, 13] was 4 µg/mL. The “CLSI Etest category” value [1, 13] was “I”, the “CLSI Etest MIC” value [1, 14] was 8 µg/mL and the “CLSI Etest category” value [1, 14] was “I”. The “CLSI Etest MIC” value [1, 15] was 8 µg/mL, the “CLSI Etest category” value [1, 15] was “I” and the “CLSI Etest MIC” value [1, 16] was 2 µg/mL. The “CLSI Etest category” value [1, 16] was “S”, the “CLSI Etest MIC” value [1, 17] was 8 µg/mL and the “CLSI Etest category” value [1, 17] was “I”. It also gave an MIC ([2]; read-out: Modified Etest MIC, strain CMRSA-1 (MRSA), 2 McF inoculum) of 8 µg/mL (≈ 5.52 µM), an MIC ([2]; read-out: Modified Etest MIC, strain CMRSA-2 (MRSA), 2 McF inoculum) of 3 µg/mL (≈ 2.07 µM) and an MIC ([2]; read-out: Modified Etest MIC, strain CMRSA-3 (MRSA), 2 McF inoculum) of 3 µg/mL (≈ 2.07 µM). The MIC ([2]; read-out: Modified Etest MIC, strain CMRSA-4 (MRSA), 2 McF inoculum) was 2 µg/mL (≈ 1.38 µM), the “Modified Etest category” value ([2]; strain CMRSA-1 (MRSA)) was “I” and the “Modified Etest category” value ([2]; strain CMRSA-2 (MRSA)) was “S”. The “Modified Etest category” value ([2]; strain CMRSA-3 (MRSA)) was “S” and the “Modified Etest category” value ([2]; strain CMRSA-4 (MRSA)) was “S”.
